Results published in US9050341B2, “Methods of treating drug resistant and other tumors by administering 6,7-dialkoxy quinazoline derivatives” (NATCO PHARMA LIMITED, priority 2009, dated 2015).

What was measured:
Assay in all cases: KinomeScan kinase profiling
Assay type in all cases: binding
[1] = biological target: T1, RPS6KA2 (Kin.Dom.-2-C-terminal) (Homo sapiens, UniProt Q15349)
T1 construct: RPS6KA2 (Kin.Dom.-2-C-terminal); host or cells: E. coli host derived from BL21, T7 phage lysate
Summary of the method: (§1)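 Kinases were expressed as T7 phage fusions in a BL21-derived E. coli host and the cleared lysates were used. Ligand beads were blocked with biotin and buffer (1% BSA, 0.05% Tween 20, 1 mM DTT). Compounds came from 40× DMSO stocks, and phage in the eluates was titred by qPCR.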

[2] = biological target: T2, DAPK3 (Homo sapiens, UniProt O43293)
T2 construct: purchased Ambit Biosciences Corp (KinomeScan); host or cells: T7 phage in E. coli host derived from BL21
Summary of the method: as §1

[3] = biological target: T3, MYO3B (Homo sapiens, UniProt Q8WXR4)
T3 construct: host or cells: T7 phage in E. coli host derived from BL21
Summary of the method: as §1

[4] = biological target: T4, TNK1 (Homo sapiens, UniProt Q13470)
T4 construct: purchased Ambit Biosciences Corp (KinomeScan); host or cells: E. coli host derived from the BL21 strain (T7 phage lysate)
T4 sequence (Q13470 whole entry): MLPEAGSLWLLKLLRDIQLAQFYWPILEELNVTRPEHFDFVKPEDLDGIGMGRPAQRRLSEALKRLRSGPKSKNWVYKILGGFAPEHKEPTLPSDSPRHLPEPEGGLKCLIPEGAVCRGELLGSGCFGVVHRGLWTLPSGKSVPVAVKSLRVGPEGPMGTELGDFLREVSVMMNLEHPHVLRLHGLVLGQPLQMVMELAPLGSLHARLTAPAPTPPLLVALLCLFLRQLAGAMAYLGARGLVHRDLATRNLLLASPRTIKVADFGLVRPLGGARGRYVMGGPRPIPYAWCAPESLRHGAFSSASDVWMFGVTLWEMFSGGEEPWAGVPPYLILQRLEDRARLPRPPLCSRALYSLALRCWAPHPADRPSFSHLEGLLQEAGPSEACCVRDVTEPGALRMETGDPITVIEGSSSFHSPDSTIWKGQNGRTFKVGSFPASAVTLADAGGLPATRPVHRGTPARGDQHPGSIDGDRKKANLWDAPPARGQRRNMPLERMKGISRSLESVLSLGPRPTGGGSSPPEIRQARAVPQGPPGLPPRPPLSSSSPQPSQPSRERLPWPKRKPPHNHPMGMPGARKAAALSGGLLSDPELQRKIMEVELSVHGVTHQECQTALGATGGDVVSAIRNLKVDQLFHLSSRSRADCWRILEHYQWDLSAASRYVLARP
Summary of the method: as §1

[5] = biological target: T5, DAPK2 (Homo sapiens, UniProt Q9UIK4)
T5 construct: purchased Ambit Biosciences Corp (KinomeScan); host or cells: T7 phage in E. coli host derived from BL21
Summary of the method: as §1

[6] = biological target: T6, ADCK4 (Homo sapiens, UniProt Q96D53)
T6 construct: host or cells: E. coli host derived from BL21 (T7 phage lysate)
Summary of the method: as §1

[7] = biological target: T7, BMPR1B (Homo sapiens, UniProt O00238)
T7 construct: purchased Ambit Biosciences Corp (KinomeScan); host or cells: E. coli host derived from the BL21 strain, T7 phage
Summary of the method: as §1

[8] = biological target: T8, WEE2 (Homo sapiens, UniProt P0C1S8)
T8 construct: purchased Ambit Biosciences Corp (KinomeScan); host or cells: E. coli host derived from the BL21 strain (T7 phage lysate)
T8 sequence (P0C1S8 whole entry): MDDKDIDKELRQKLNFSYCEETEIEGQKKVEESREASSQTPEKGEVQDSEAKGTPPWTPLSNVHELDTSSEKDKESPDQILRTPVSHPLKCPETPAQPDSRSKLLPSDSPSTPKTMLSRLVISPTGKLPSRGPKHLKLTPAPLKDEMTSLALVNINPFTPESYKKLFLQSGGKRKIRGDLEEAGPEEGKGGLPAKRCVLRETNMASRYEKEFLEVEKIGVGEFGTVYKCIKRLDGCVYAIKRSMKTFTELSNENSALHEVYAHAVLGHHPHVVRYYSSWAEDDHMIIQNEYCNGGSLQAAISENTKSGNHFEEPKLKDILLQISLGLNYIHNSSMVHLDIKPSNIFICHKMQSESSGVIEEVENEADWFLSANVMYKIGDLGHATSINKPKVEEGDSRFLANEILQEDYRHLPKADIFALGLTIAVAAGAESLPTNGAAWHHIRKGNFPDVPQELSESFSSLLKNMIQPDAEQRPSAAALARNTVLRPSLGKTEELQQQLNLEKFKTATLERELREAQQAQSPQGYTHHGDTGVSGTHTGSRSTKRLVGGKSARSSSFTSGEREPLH
Summary of the method: as §1

[9] = biological target: T9, SIK2 (Homo sapiens, UniProt Q9H0K1)
T9 construct: host or cells: E. coli host derived from the BL21 strain, T7 phage lysate
Summary of the method: as §1

[10] = biological target: T10, MAP3K3 (Homo sapiens, UniProt Q99759)
T10 construct: host or cells: E. coli derived from BL21, infected with T7 phage
T10 sequence (Q99759 whole entry): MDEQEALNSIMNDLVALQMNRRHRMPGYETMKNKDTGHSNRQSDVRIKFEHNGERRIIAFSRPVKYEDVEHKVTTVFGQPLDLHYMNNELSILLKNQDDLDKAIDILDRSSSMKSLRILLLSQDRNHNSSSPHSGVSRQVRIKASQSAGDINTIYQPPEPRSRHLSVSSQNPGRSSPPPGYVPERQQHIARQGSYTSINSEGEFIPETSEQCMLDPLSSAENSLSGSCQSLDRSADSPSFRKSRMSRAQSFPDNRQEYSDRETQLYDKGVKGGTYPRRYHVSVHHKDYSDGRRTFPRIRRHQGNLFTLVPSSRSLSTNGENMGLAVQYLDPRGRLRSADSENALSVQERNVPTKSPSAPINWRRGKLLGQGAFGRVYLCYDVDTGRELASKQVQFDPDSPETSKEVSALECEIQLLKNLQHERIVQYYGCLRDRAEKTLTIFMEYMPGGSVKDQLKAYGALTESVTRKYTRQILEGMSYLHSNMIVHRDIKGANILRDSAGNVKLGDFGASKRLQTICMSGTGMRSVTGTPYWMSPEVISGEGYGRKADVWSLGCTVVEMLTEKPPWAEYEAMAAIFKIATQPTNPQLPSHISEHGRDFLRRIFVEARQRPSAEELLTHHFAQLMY
Summary of the method: as §1

[11] = biological target: T11, MLCK (Homo sapiens, UniProt Q32MK0)
T11 construct: host or cells: T7 phage in E. coli host derived from BL21
Summary of the method: as §1

[12] = biological target: T12, CDK5 (Homo sapiens, UniProt Q00535)
T12 construct: host or cells: T7 phage in E. coli (BL21-derived)
T12 sequence (Q00535 whole entry): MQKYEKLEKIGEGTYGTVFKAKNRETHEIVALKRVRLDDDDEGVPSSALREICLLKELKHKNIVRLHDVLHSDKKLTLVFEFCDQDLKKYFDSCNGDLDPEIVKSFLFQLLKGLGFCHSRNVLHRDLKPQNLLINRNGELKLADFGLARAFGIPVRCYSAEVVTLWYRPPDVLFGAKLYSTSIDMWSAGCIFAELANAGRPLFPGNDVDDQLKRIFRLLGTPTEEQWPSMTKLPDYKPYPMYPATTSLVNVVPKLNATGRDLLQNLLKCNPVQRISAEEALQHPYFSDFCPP
Summary of the method: as §1

[13] = biological target: T13, NLK (Homo sapiens, UniProt Q9UBE8)
T13 construct: host or cells: E. coli host derived from the BL21 strain, infected with T7 phage
Summary of the method: as §1

[14] = biological target: T14, STK36 (Homo sapiens, UniProt Q9NRP7)
T14 construct: host or cells: E. coli host derived from the BL21 strain, T7 phage lysate
T14 sequence (Q9NRP7 whole entry): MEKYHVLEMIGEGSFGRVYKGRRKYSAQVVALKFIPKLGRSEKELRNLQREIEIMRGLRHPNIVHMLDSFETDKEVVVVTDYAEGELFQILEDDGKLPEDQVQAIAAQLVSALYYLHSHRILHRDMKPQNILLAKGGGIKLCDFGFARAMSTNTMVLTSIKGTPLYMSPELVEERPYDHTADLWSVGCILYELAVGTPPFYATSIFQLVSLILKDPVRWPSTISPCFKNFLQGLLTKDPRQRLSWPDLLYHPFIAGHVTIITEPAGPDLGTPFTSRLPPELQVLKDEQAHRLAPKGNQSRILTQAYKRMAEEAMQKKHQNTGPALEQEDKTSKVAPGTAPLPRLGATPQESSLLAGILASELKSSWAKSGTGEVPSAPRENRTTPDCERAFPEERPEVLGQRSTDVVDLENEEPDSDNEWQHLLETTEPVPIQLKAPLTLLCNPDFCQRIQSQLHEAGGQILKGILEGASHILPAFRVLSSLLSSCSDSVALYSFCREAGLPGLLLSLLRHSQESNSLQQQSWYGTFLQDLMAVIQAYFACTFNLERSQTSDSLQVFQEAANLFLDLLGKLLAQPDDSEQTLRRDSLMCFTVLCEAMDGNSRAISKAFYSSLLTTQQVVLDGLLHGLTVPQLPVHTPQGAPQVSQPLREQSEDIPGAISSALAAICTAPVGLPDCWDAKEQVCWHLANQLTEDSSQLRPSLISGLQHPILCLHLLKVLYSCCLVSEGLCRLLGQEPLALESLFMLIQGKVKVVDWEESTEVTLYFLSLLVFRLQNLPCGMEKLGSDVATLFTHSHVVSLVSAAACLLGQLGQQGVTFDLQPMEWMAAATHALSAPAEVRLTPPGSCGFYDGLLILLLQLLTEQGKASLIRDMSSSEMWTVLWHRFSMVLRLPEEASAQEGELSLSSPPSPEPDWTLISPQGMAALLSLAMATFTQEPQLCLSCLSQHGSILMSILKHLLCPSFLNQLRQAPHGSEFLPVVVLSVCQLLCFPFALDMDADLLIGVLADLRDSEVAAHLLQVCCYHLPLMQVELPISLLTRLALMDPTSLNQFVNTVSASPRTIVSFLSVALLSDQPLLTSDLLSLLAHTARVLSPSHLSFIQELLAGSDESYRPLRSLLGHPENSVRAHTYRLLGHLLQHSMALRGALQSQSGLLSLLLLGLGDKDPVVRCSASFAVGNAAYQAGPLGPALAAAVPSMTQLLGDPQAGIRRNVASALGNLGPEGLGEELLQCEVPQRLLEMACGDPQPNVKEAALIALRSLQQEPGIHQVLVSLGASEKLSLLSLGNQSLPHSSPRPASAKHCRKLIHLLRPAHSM
Summary of the method: as §1

[15] = biological target: T15, DAPK1 (Homo sapiens, UniProt P53355)
T15 construct: purchased Ambit Biosciences Corp (KinomeScan); host or cells: T7 phage in E. coli host derived from BL21
T15 sequence (P53355 whole entry): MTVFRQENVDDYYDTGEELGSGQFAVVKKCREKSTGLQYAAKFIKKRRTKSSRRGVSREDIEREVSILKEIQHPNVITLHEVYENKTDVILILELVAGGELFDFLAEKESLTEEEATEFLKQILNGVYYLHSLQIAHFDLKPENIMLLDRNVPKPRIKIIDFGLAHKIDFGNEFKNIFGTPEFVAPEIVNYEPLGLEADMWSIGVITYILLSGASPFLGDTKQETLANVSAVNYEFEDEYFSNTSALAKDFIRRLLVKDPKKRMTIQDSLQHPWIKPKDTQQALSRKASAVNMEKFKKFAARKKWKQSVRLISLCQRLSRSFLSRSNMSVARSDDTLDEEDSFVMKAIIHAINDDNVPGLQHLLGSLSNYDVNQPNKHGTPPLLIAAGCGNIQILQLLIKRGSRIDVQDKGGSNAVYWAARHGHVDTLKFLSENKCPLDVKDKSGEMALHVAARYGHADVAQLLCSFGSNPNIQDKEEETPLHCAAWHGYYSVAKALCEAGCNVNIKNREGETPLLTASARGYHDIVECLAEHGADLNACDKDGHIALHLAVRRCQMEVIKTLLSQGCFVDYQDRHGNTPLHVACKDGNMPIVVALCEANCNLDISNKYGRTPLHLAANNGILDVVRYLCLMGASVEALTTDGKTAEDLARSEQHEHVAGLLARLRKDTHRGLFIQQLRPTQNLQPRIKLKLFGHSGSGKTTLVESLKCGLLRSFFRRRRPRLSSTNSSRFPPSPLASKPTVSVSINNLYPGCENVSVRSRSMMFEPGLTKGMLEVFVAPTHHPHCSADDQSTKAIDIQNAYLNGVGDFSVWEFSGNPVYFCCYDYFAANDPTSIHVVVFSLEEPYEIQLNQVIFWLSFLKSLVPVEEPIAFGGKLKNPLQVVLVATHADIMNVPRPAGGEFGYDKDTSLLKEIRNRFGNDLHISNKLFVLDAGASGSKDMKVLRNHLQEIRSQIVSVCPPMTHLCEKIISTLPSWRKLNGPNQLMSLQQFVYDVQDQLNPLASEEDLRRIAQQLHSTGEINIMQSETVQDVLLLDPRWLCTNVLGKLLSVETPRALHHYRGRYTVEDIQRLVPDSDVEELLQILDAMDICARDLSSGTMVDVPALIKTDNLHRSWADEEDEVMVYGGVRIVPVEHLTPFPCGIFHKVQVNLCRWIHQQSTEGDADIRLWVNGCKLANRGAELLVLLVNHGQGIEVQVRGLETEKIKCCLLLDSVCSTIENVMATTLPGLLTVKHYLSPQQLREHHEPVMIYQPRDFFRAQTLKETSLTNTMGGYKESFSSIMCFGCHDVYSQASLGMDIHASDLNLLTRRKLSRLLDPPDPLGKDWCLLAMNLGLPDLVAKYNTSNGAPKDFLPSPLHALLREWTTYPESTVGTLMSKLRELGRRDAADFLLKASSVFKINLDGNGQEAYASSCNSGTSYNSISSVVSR
Summary of the method: as §1

[16] = biological target: T16, MEK1 (Homo sapiens, UniProt Q02750)
T16 construct: host or cells: E. coli derived from BL21, infected with T7 phage
Summary of the method: as §1

[17] = biological target: T17, PAK2 (Homo sapiens, UniProt Q13177)
T17 construct: host or cells: E. coli host derived from the BL21 strain, infected with T7 phage
Summary of the method: as §1

[18] = biological target: T18, RET (V804L) (Homo sapiens, UniProt P07949, V804L)
T18 construct: host or cells: E. coli host derived from BL21, T7 phage lysate
Summary of the method: as §1

[19] = biological target: T19, ANKK1 (Homo sapiens, UniProt Q8NFD2)
T19 construct: host or cells: E. coli host derived from BL21 (T7 phage lysate)
Summary of the method: as §1

[20] = biological target: T20, PIM3 (Homo sapiens, UniProt Q86V86)
T20 construct: purchased Ambit Biosciences Corp (KinomeScan); host or cells: E. coli host derived from BL21, infected with T7 phage
Summary of the method: as §1

[21] = biological target: T21, VEGFR2 (Homo sapiens, UniProt P35968)
T21 construct: purchased Ambit Biosciences Corp (KinomeScan); host or cells: E. coli host derived from the BL21 strain (T7 phage lysate)
Summary of the method: as §1

[22] = biological target: T22, MAP4K2 (Homo sapiens, UniProt Q12851)
T22 construct: host or cells: E. coli derived from BL21, infected with T7 phage
Summary of the method: as §1

C#Cc1cccc(Nc2ncnc3cc(OC)c(OCCCN4CCOCC4)cc23)c1 [NRC-2694, N-(3-ethylnylphenyl)-7-methoxy-6-[3-(4-morpholinyl)propoxy]-4-quinazolinamine] was tested, and the “% Ctrl @ 10000 nM” value [1] was 78 % Ctrl, the “% Ctrl @ 10000 nM” value [2] was 34 % Ctrl and the “% Ctrl @ 10000 nM” value [3] was 100 % Ctrl. For the same compound, the “% Ctrl @ 10000 nM” value [4] was 41 % Ctrl, the “% Ctrl @ 10000 nM” value [5] was 61 % Ctrl and the “% Ctrl @ 10000 nM” value [6] was 14 % Ctrl. The “% Ctrl @ 10000 nM” value [7] was 78 % Ctrl, the “% Ctrl @ 10000 nM” value [8] was 53 % Ctrl and the “% Ctrl @ 10000 nM” value [9] was 21 % Ctrl. For the same compound, the “% Ctrl @ 10000 nM” value [10] was 5.9 % Ctrl, the “% Ctrl @ 10000 nM” value [11] was 77 % Ctrl and the “% Ctrl @ 10000 nM” value [12] was 100 % Ctrl. The “% Ctrl @ 10000 nM” value [13] was 55 % Ctrl, the “% Ctrl @ 10000 nM” value [14] was 4.6 % Ctrl and the “% Ctrl @ 10000 nM” value [15] was 26 % Ctrl. For the same compound, the “% Ctrl @ 10000 nM” value [16] was 50 % Ctrl, the “% Ctrl @ 10000 nM” value [17] was 67 % Ctrl and the “% Ctrl @ 10000 nM” value [18] was 81 % Ctrl. For the same compound, the “% Ctrl @ 10000 nM” value [19] was 73 % Ctrl, the “% Ctrl @ 10000 nM” value [20] was 23 % Ctrl and the “% Ctrl @ 10000 nM” value [21] was 95 % Ctrl. The “% Ctrl @ 10000 nM” value [22] was 48 % Ctrl.
